Read-outs that look alike come from different tables or passages of the source.
Experiments:
[1] = test system: HCV genotype 1b replicon in Huh-7-derived cell line (Zluc); assay: microbe, parasite or virus in culture; format: cell-based; conditions: Hepatitis C virus, read-out: HCV Replicon EC50
Procedure: Huh-7-derived cell line (Zluc) that harbors an HCV genotype 1b replicon and a luciferase reporter gene was grown in Dulbecco's Modified Eagle Medium (DMEM) supplemented with 10% fetal bovine serum, 2 mM GlutaMAX, 1% MEM nonessential amino acids, 100 IU/mL penicillin, 100 μg/mL streptomycin, and 0.5 mg/mL Geneticin® (G418). For dose response testing the cells were seeded in 96-well plates at 7.5×10^3 cells per well in a volume of 50 μL, and incubated at 37° C./5% CO2. Drug solutions were made up freshly in Huh-7 media as 2× stocks. Ten additional 5-fold dilutions were prepared from these stocks in DMEM without G418. At least three hours after Zluc cells were seeded, drug treatment was initiated by adding 50 μL of drug dilutions to the plates in duplicate. […] Cells were then incubated at 37° C./5% CO2. Alternatively, compounds were tested at two concentrations (1 μM and 10 μM). […] For this, media was removed from the plates via gentle tapping. Fifty microliters of ONE-glo luciferase assay reagent was added to each well. […] The EC50 values were calculated from dose response curves from the resulting best-fit equations determined by Microsoft Excel and XLfit 4.1 software.

[2] = Cytotoxicity evaluation, CellTiter-Blue Cell Viability Assay; format: cell-based; conditions: human, Zluc cells (HCV replicon cells)
Procedure: For cytotoxicity evaluation, Zluc cells were treated with compound as described herein, and cell viability was monitored using the CellTiter-Blue Cell Viability Assay (Promega) by adding 20 μL of the assay solution to each well. The plates were then incubated at 37° C./5% CO2 for at least 3 hours.

[3] = biological target: T1, wild-type HCV genotype 1b NS5B polymerase (Hepatitis C virus genotype 1b, UniProt Q9WMX2); assay: HCV polymerase enzyme assay, wild-type; format: biochemical
T1 construct: recombinant HCV polymerases (with a deletion of the 21 carboxy terminal amino acids); made in house
From the text: (§1) Test compounds in the form of nucleoside triphosphates were examined for inhibitory activity against purified HCV polymerase in a standard assay. Bacterial expression constructs encoding the approximately 65 kDa HCV genotype 1b NS5B protein were used to generate recombinant HCV polymerases (with a deletion of the 21 carboxy terminal amino acids). Both the wild-type genotype 1b protein and protein containing the S282T mutation were expressed and purified for use in the enzymatic activity assay.
(§2) The enzymatic activity assay measured the inhibitory effect of increasing concentrations of test compound on the incorporation of α-[^33P]-labeled nucleotide into trichloroacetic acid-precipitable material. Recombinant polymerase and synthetic RNA template were combined in reaction buffer containing ribonucleoside triphosphates, α-[^33P]-labeled nucleotide and eight concentrations of test compound in three-fold dilutions. Reactions were incubated for two hours at 30° C.
(§3) Reactions were terminated by the addition of ice-cold trichloroacetic acid and sodium pyrophosphate to promote precipitation of newly-synthesized ribonucleic acid. Precipitable material from the reactions was collected by filtration onto 96-well filter plates, washed extensively with water, and quantified by liquid scintillation.
(§4) The inhibitory activity of test compounds was determined by fitting results to dose-response curves using XLfit software.

[4] = biological target: T2, HCV genotype 1b NS5B polymerase containing the S282T mutation (Hepatitis C virus genotype 1b, UniProt Q9WMX2, S2701T); assay: HCV polymerase enzyme assay, S282T mutant; format: biochemical
T2 construct: recombinant HCV polymerases (with a deletion of the 21 carboxy terminal amino acids); made in house
From the text: as §1, §2, §3, §4

[5] = Zluc cells, 72 hours of incubation, luciferase readout

| SMILES | EC50 [1, 5] [µM] | CC50 at 72 h [2] [µM] | IC50 [3] [µM] | IC50 [4] [µM] | EC50 ([1]; 72 h) [µM] |
| --- | --- | --- | --- | --- | --- |
| CC(C)OC(=O)[C@H](C)NP(=O)(OCCSC(=O)C(C)(C)C)OC[C@H]1S[C@@H](n2ccc(=O)[nH]c2=O)[C@H](O)[C@@H]1O (single isomer, unassigned) [4b diastereomer 1] | > 10 | > 50 | – | – | – |
| CC(C)OC(=O)[C@H](C)N[P@@](=O)(OC[C@H]1S[C@@H](n2ccc(=O)[nH]c2=O)[C@H](O)[C@@H]1O)Oc1ccccc1 [Compound 2bi] | > 10 | > 50 | – | – | – |
| CC(C)OC(=O)[C@@H](C)NP(=O)(OC[C@H]1S[C@@H](n2ccc(=O)[nH]c2=O)[C@H](O)[C@@H]1O)Oc1ccccc1 (mixture of isomers) [2a mixture of diastereomers] | > 10 | > 50 | – | – | – |
| CC(C)(C)C(=O)SCCOP(=O)(NCc1ccccc1)OC[C@H]1S[C@@H](n2ccc(=O)[nH]c2=O)[C@H](O)[C@@H]1O (mixture of isomers) [3 mixture of diastereomers] | > 10 | > 50 | – | – | – |
| CC(C)OC(=O)[C@H](C)NP(=O)(OCCSC(=O)C(C)(C)C)OC[C@H]1S[C@@H](n2ccc(=O)[nH]c2=O)[C@H](O)[C@@H]1O (mixture of isomers) [4b mixture of diastereomers] | > 10 | > 50 | – | – | – |
| CC(C)OC(=O)[C@H](C)N[P@](=O)(OC[C@H]1S[C@@H](n2ccc(=O)[nH]c2=O)[C@H](O)[C@@H]1O)Oc1ccccc1 [Compound 2bii] | > 10 | > 50 | – | – | – |
| O=c1ccn([C@@H]2S[C@H](COP(=O)(O)OP(=O)(O)OP(=O)(O)O)[C@@H](O)[C@H]2O)c(=O)[nH]1 [Compound 202] | – | – | 0.25 to 1 | 0.25 to 1 | – |
| Nc1nc2c(ncn2[C@@H]2S[C@H](COP(=O)(O)OP(=O)(O)OP(=O)(O)O)[C@@H](O)[C@H]2O)c(=O)[nH]1 [Compound 203] | – | – | 0.25 to 1 | 1 to 10 | – |
| CC(C)OC(=O)[C@H](C)NP(=O)(OC[C@H]1S[C@@H](n2ccc(=O)[nH]c2=O)[C@](C)(O)[C@@H]1O)Oc1ccccc1 (single isomer, unassigned) [1b diastereomer 1] | – | > 50 | – | – | > 10 |
| C[C@@]1(O)[C@H](O)[C@@H](COP(=O)(O)OP(=O)(O)OP(=O)(O)O)S[C@H]1n1ccc(=O)[nH]c1=O [Compound 201] | – | – | 1 to 10 | > 10 | – |

Source: patent US10005779B2, “1′,4′-thio nucleosides for the treatment of HCV” (priority 2013, dated 2018)
